Data taken from ChEMBL document CHEMBL3045516, “Field study of the relative susceptibility of eleven potato (Solanum tuberosum L.) varieties and the efficacy of two fungicides against Rhizoctonia solani attack” (2010).

Key:
Format in all cases: functional
Rhizoctonia solani [1] = test: Fungicidal activity against Rhizoctonia solani assessed as level-1 black scurf infected potato Nicola progeny tubers using in-furrow application of 25% active ingredient containing compound under field trial conditions (reference value: 0.0%)
Rhizoctonia solani [2] = test: Fungicidal activity against Rhizoctonia solani assessed as level-3 black scurf infected potato Nicola progeny tubers using 25% active ingredient containing compound treated potato seeds and in-furrow compound application under field trial conditions (reference value: 22.4%)
Rhizoctonia solani [3] = test: Fungicidal activity against Rhizoctonia solani assessed as level-4 black scurf infected potato Nicola progeny tubers using 25% active ingredient containing compound treated potato seeds under field trial conditions (reference value: 59.7%)
Rhizoctonia solani [4] = test: Fungicidal activity against Rhizoctonia solani assessed as level-2 black scurf infected potato Nicola progeny tubers using in-furrow application of 25% active ingredient containing compound under field trial conditions (reference value: 17.9%)
Rhizoctonia solani [5] = test: Fungicidal activity against Rhizoctonia solani assessed as level-2 black scurf infected potato Nicola progeny tubers using 25% active ingredient containing compound treated potato seeds under field trial conditions (reference value: 17.9%)
Rhizoctonia solani [6] = test: Fungicidal activity against Rhizoctonia solani assessed as level-2 black scurf infected potato Nicola progeny tubers using 25% active ingredient containing compound treated potato seeds and in-furrow compound application under field trial conditions (reference value: 17.9%)
Rhizoctonia solani [7] = test: Fungicidal activity against Rhizoctonia solani assessed as level-3 black scurf infected potato Nicola progeny tubers using 25% active ingredient containing compound treated potato seeds under field trial conditions (reference value: 22.4%)
Rhizoctonia solani [8] = test: Fungicidal activity against Rhizoctonia solani assessed as level-4 black scurf infected potato Nicola progeny tubers using 25% active ingredient containing compound treated potato seeds and in-furrow compound application under field trial conditions (reference value: 59.7%)
Rhizoctonia solani [9] = test: Fungicidal activity against Rhizoctonia solani assessed as level-4 black scurf infected potato Nicola progeny tubers using in-furrow application of 25% active ingredient containing compound under field trial conditions (reference value: 59.7%)
Rhizoctonia solani [10] = test: Fungicidal activity against Rhizoctonia solani assessed as level-1 black scurf infected potato Nicola progeny tubers using 25% active ingredient containing compound treated potato seeds and in-furrow compound application under field trial conditions (reference value: 0.0%)
Rhizoctonia solani [11] = test: Fungicidal activity against Rhizoctonia solani assessed as level-3 black scurf infected potato Nicola progeny tubers using in-furrow application of 25% active ingredient containing compound under field trial conditions (reference value: 22.4%)
Rhizoctonia solani [12] = test: Fungicidal activity against Rhizoctonia solani assessed as level-1 black scurf infected potato Nicola progeny tubers using 25% active ingredient containing compound treated potato seeds under field trial conditions (reference value: 0.0%)

CO/C=C(\C(=O)OC)c1ccccc1Oc1cc(Oc2ccccc2C#N)ncn1 [Azoxystrobin]
Activity (Rhizoctonia solani [1]): 0.01%
Activity (Rhizoctonia solani [2]): 0.01%
Activity (Rhizoctonia solani [3]): 10%
Activity (Rhizoctonia solani [4]): 31%
Activity (Rhizoctonia solani [5]): 90%
Activity (Rhizoctonia solani [6]): 83.3%
Activity (Rhizoctonia solani [7]): 0.01%
Activity (Rhizoctonia solani [8]): 0.01%
Activity (Rhizoctonia solani [9]): 0.01%
Activity (Rhizoctonia solani [10]): 16.7%
Activity (Rhizoctonia solani [11]): 69%
Activity (Rhizoctonia solani [12]): 0.01%

O=C(Nc1ccccc1)N(Cc1ccc(Cl)cc1)C1CCCC1 [PENCYCURON]
Activity (Rhizoctonia solani [3]): 1.4%
Activity (Rhizoctonia solani [5]): 70.8%
Activity (Rhizoctonia solani [7]): 19.7%
Activity (Rhizoctonia solani [12]): 8.1%
